According to patent US20160375006A1, “USES OF PARALOG-SELECTIVE INHIBITORS OF GSK3 KINASES” (priority 2012, published 2016):
Converted amounts (≈) assume the structure as drawn.

What was measured:
in vitro = details: mouse, plasma, pH 7.4
Procedure: Plasma protein binding was determined by equilibrium dialysis using the Rapid Equilibrium Dialysis (RED) device (Pierce Biotechnology, Rockford, Ill.) for both human and mouse plasma. […] Compounds were incubated at 37° C. for 5 hours with a 250 rpm orbital shake.

GSK3α = GSK3α (Homo sapiens, UniProt P49840); details: read-out: Caliper Assay, GSK3α IC50
Procedure: Reactions were terminated by the addition of 10 mM EDTA. Substrate and product were separated electrophoretically and fluorescence intensity of the substrate and product was determined by Labchip EZ Reader II (Caliper Life Sciences, MA). The kinase activity was measured as percent conversion. The reactions were performed in duplicate for each sample. […] The results were analyzed by Genedata Assay Analyzer. The percent inhibition was plotted against the compound concentration and the IC50 value was determined from the logistic dose-response curve fitting.

[1] = in mice, 60 min

Chain of GSK3α (P49840 whole entry): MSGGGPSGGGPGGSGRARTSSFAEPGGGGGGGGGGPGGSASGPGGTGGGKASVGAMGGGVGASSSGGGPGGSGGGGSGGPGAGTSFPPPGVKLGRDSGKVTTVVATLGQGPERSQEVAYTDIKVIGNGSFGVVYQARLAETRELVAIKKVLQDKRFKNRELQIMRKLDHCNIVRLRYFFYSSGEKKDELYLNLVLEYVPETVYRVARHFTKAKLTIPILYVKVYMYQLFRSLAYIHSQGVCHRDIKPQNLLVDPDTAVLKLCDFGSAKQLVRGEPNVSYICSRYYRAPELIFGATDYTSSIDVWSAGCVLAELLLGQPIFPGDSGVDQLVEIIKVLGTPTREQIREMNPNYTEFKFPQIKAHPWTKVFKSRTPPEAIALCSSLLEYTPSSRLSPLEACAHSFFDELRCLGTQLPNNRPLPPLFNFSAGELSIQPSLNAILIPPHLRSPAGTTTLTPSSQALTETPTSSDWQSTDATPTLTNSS
Procedure for physchem: Solubility was determined in phosphate buffered saline (PBS) pH 7.4 with 1% DMSO. Each compound was prepared in duplicate at 100 μM in both 100% DMSO and PBS with 1% DMSO. Compounds were allowed to equilibrate at room temperature with a 250 rpm orbital shake for 24 hours.

## Cc1[nH]nc2c1C(c1ccccc1)(C(F)(F)F)C1=C(CC(C)(C)CC1=O)N2 (stereo not shown) [Compound 83]
In vitro
  fraction unbound at 5 h, 5 μM: 0.102
GSK3α
  IC50: < 100 nM
physchem
  solubility: 410 µM (≈ 154 µg/mL)
[1]
  Microsomal stability 60 min: 51.5
